IC50 data for 2 compounds are collected here from patent US9040717B2, “Pyrazole-amide compounds and pharmaceutical use thereof” (JAPAN TOBACCO INC., priority 2013, dated 2015).

Experiment [1] addresses human PDHK2 (hPDHK2) (Homo sapiens (Human), UniProt Q15119). Kind of experiment: Inhibitory action of PDHK2 activity in vitro (residual PDH activity after kinase reaction). It counts as biochemical. The protocol:
(§1) The inhibitory action of PDHK activity was assessed indirectly by measuring the residual PDH activity after kinase reaction in the presence of a test compound.
In the case of human PDHK2 (hPDHK2, Genbank Accession No. BC040478.1), modified hPDHK2 cDNA wherein FLAG-Tag sequence was added to the N terminus of hPDHK2 cDNA clone (pReceiver-M01/PDK2-GeneCopoeia) was prepared by PCR and cloned into a vector (pET17b-Novagen). The recombinant construct was transformed into Escherichia coli (DH5α-TOYOBO). The recombinant clones were identified, and plasmid DNA was isolated and subjected to the DNA sequence analysis. One clone which had the expected nucleic acid sequence was selected for expression work.
For expression of hPDHK2 activity, Escherichia coli strain BL21(DE3) cells (Novagen) were transformed with the pET17b vector containing modified hPDHK2 cDNA. The Escherichia coli were grown to an optical density 0.6 ([…]) at 30° C. Protein expression was induced by the addition of 500 μmol/L isopropyl-β-thiogalactopyranoside. The Escherichia coli were cultured at 30° C. for 5 hr and harvested by centrifugation. Resuspension of the Escherichia coli paste was disrupted by a microfluidizer. FLAG-Tagged protein was purified using FLAG affinity gel. […]
0.05 U/mL PDH and 0.8 μg/mL hPDHK2 were mixed in a buffer (50 mmol/L 3-morpholinopropanesulfonic acid (pH 7.0), 20 mmol/L dipotassium hydrogen phosphate, 60 mmol/L potassium chloride, 2 mmol/L magnesium chloride, 0.4 mmol/L EDTA, and 0.2% Pluronic F-68, 2 mmol/L dithiothreitol), and the mixture was incubated at 4° C. overnight to obtain a PDH/hPDHK2 complex. […] The mixture was incubated at room temperature for 90 min, and the residual PDH activity was measured. The absorbance at 340 nm before and after PDH reaction was measured using a microplate reader to detect NADH produced by the PDH reaction. The hPDHK2 inhibition rate (%) of the test compound was calculated from the formula [{(PDH activity of test compound−PDH activity of control)/PDH activity of blank−PDH activity of control)}×100].

For experiment [2], the target named is human PDHK1 (hPDHK1) (Homo sapiens (Human), UniProt Q15118). Kind of experiment: Inhibitory action of PDHK1 activity in vitro (residual PDH activity after kinase reaction). It counts as biochemical. The protocol:
as §1
The recombinant construct was transformed into Escherichia coli (DH5α-TOYOBO). The recombinant clones were identified, and plasmid DNA was isolated and subjected to the DNA sequence analysis. One clone which had the expected nucleic acid sequence was selected for expression work.
The Escherichia coli were grown to an optical density 0.6 ([…]) at 30° C. Protein expression was induced by the addition of 500 μmol/L isopropyl-β-thiogalactopyranoside. The Escherichia coli were cultured at 30° C. for 5 hr and harvested by centrifugation. Resuspension of the Escherichia coli paste was disrupted by a microfluidizer.
The eluted fractions containing FLAG-Tagged protein were pooled, dialyzed against 20 mmol/L HEPES-NaOH, 150 mmol/L sodium chloride, 0.5 mmol/L ethylenediamine tetraacetic acid (EDTA), 1% ethylene glycol, and 0.1% Pluronic F-68 (pH 8.0), and preserved at −80° C.
The mixture was incubated at room temperature for 90 min, and the residual PDH activity was measured.
The absorbance at 340 nm before and after PDH reaction was measured using a microplate reader to detect NADH produced by the PDH reaction.

human PDHK1 (hPDHK1), sequence (Q15118 29-436): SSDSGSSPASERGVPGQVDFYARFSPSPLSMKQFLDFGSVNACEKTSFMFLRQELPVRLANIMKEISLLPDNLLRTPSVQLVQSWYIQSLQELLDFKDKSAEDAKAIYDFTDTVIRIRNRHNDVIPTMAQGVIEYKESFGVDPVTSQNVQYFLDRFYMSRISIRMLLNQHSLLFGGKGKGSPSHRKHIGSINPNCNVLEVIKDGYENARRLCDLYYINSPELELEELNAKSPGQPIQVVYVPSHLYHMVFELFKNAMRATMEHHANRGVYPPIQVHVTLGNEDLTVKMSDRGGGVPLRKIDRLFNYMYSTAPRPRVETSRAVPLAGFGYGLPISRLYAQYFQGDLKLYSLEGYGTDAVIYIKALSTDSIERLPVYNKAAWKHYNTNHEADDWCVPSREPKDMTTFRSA

As to `CC(C)(O)CCOc1cc(-c2cnn(C(C)(C)C(N)=O)c2)c2c(c1)[C@@](O)(C(F)(F)F)c1ccccc1-2` [Compound (2), 2-{4-[(9R)-9-hydroxy-2-(3-hydroxy-3-methylbutyloxy)-9-(trifluoromethyl)-9H-fluoren-4-yl]-1H-pyrazol-1-yl}-2-methylpropanamide], the IC50 in experiment [1] is 4.6 nM; in experiment [2] it was 4.7 nM.

Take `CC(C)(O)CCCOc1cc(-c2cnn(C(C)(C)C(N)=O)c2)c2c(c1)[C@@](O)(C(F)(F)F)c1ccccc1-2` [Compound (3), 2-{4-[(9R)-9-hydroxy-2-(4-hydroxy-4-methylpentyloxy)-9-(trifluoromethyl)-9H-fluoren-4-yl]-1H-pyrazol-1-yl}-2-methylpropanamide]: the values for the IC50 in experiment [1] and in experiment [2] were 4.2 nM and 3.5 nM, respectively.
